From patent US12171740B2, “Compositions and methods for treating allergic inflammatory conditions” (CHILDREN'S HOSPITAL MEDICAL CENTER, priority 2016, dated 2024) come the findings set out here.

Experiment [1] addresses T1, KLK5 (Homo sapiens, UniProt Q9Y337).
T1 sequence (Q9Y337 23-293): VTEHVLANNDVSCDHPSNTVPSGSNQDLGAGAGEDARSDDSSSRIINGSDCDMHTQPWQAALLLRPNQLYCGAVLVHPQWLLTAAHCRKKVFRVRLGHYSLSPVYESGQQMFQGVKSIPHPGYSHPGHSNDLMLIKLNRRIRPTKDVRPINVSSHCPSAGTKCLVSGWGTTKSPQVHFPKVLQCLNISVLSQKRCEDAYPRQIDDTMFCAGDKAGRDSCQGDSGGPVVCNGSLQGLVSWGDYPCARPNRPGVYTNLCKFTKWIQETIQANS
Kind of experiment: Inhibition of KLK5 by organic compounds (dose response). The format is biochemical. The method, then: FIGS. 14A-14B show the effect of organic compounds on KLK5 activity. FIG. 14A is a dose response curve for 3-(3-chlorophenyl) carboxy-7-hydroxymethyl coumarin. FIG. 14B is a dose response curve for 3-carboxy-7-hydroxymethyl coumarin.
Two organic compounds were tested for their inhibition of KLK5.

For experiment [2], the system named is serine proteinases with trypsin-like activity. Put plainly: Trypsin-like / proteolytic activity in supernatants of SPINK7-depleted EPC2 cells. It is filed as cell-based, human. The following applies: following ALI differentiation. The method, then: (§1) FIG. 10A is a bar graph showing quantification of uPA activity in supernatants derived from (NSC) or SPINK7-depleted EPC2 cells following during ALI differentiation (day 7-9). FIG. 10B is a bar graph showing quantification of the activity of serine proteinases with trypsin-like activity in supernatants derived from (NSC) or SPINK7-depleted EPC2 cells and primary esophageal cells following ALI differentiation. Proteinase activity in the supernatants is calculated as nM concentrations according to standard dilutions of recombinant hKLK5. In vitro activity assays of KLK5 (FIG. 10C) KLK7 (FIG. 10D) and KLK11 (FIG. 10E) in the presence of the indicated concentrations of SPINK7. Data are represented as the mean±s.e.m.
FIG. 12A is a bar graph showing FPKM values of uPA in the esophagus of EoE patients and controls. FIG. 12B is a bar graph showing analysis of the uPA proteolytic activity (active units—AU) in esophageal biopsies from 6 normal and 6 EoE patients. […] FIG. 12D is a bar graph showing quantification of trypsin-like activity in supernatants derived from NSC or SPINK7-depleted EPC2 cells that were treated with A1AT or a vehicle following ALI differentiation. […]
The known SPINK7 target uPA (Cheng, X., Lu, S. H. & Cui, Y. Cancer letters 290, 87-95 (2010), and Huang, G. et al. Carcinogenesis 28, 2274-2281(2007)) was analyzed. […]

In experiment [3] the test system is SPINK7-depleted EPC2 cells. Kind of experiment: Barrier function (electrical resistance) of SPINK7-depleted EPC2 cells during ALI differentiation. The format is cell-based, human. Conditions: treated with A1AT during ALI differentiation, Day 7. The method, then:
(§2) FIG. 12A is a bar graph showing FPKM values of uPA in the esophagus of EoE patients and controls. FIG. 12B is a bar graph showing analysis of the uPA proteolytic activity (active units—AU) in esophageal biopsies from 6 normal and 6 EoE patients. […] FIG. 12D is a bar graph showing quantification of trypsin-like activity in supernatants derived from NSC or SPINK7-depleted EPC2 cells that were treated with A1AT or a vehicle following ALI differentiation. FIG. 12E are electrical resistance measurements of NSC or SPINK7-depleted EPC2 cells that were treated with A1AT or a vehicle during ALI differentiation (Day 7). FIG. 12F are H&E staining images of NSC or SPINK7-depleted EPC2 cells that were treated with A1AT or a vehicle after ALI differentiation (Day 14)-add. FIG. 12G are images of co-immunofluorescence staining of E-cadherin and Filaggrin of NSC or SPINK7-depleted EPC2 cells that were treated with A1AT or a vehicle following ALI differentiation.
Paracellular and transcellular permeability of the ALI cultured cells were analyzed. […] Transepithelial electrical resistance (A) was measured from NSC and SPINK7-depleted EPC2 cells measured at day 7 and 8 during ALI differentiation (data not shown; data were representative of four experiments performed in triplicate and are represented as the mean±Sd). […]

The test system of experiment [4] is SPINK7-depleted EPC2 cells. Kind of experiment: H&E staining of SPINK7-depleted EPC2 cells after ALI differentiation (epithelial integrity). It is filed as cell-based, human. Conditions: ALI differentiation Day 14. The method, then:
as §2
(§3) To extend the potential benefit of A1AT, its ability to restore the epithelial changes induced by SPINK7 loss was […]. […] Consistent with these findings, A1AT administration increased filaggrin expression (FIG. 12G)

A further experiment relates to Filaggrin. Put plainly: Co-immunofluorescence staining of filaggrin in SPINK7-depleted EPC2 cells. The format is cell-based, human. Conditions: following ALI differentiation. The method, then:
as §2, §3

Experiment [5] deals with T1, KLK5. Put plainly: In vitro KLK5 activity assay in the presence of SPINK7. The format is biochemical. As to the method:
as §1

A further experiment addresses KLK7 (Homo sapiens, UniProt P49862). Kind of experiment: In vitro KLK7 activity assay in the presence of SPINK7. The format is biochemical. As to the method: as §1
For a further experiment, the target named is T2, KLK11 (Homo sapiens, UniProt Q9UBX7).
T2 sequence (Q9UBX7 54-282): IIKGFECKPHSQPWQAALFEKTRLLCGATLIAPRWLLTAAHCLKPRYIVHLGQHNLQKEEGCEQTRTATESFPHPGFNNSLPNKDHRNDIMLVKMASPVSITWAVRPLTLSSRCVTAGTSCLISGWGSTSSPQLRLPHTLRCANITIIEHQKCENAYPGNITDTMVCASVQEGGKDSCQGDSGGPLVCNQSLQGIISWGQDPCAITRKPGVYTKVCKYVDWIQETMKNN
Put plainly: In vitro KLK11 activity assay in the presence of SPINK7. The format is biochemical. The method, then: as §1

The target of the next experiment is uPA (Homo sapiens, UniProt P00749). Kind of experiment: uPA proteolytic activity inhibition by SPINK7. It is filed as biochemical. Conditions: data not shown. The method, then: The known SPINK7 target uPA (Cheng, X., Lu, S. H. & Cui, Y. Cancer letters 290, 87-95 (2010), and Huang, G. et al. Carcinogenesis 28, 2274-2281(2007)) was analyzed. […] An increased proteolytic activity using the broad trypsin-like activity substrate Val-Pro-Arg (FIG. 10B) was observed.

Entries after “also recorded” stand apart in the source; their conditions may differ.

KLK7, sequence (P49862 30-253): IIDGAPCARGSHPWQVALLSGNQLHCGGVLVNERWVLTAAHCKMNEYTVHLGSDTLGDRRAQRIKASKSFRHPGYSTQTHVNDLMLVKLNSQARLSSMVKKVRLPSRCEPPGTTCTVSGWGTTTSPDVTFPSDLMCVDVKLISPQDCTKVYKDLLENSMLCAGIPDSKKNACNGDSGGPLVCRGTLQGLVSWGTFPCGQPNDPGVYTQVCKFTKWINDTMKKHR

On to “3-(3-chlorophenyl) carboxy-7-hydroxymethyl coumarin [Compound I]”, for which, on KLK5 [1], 52000 ± 12000 nM corresponded to half-maximal inhibition (IC50) and the “type of KLK5 inhibition (reversibility)” value is given as “non reversible inhibitors”.

Take `O=C(O)c1cc2ccc(CO)cc2oc1=O` [Compound II, 3-carboxy-7-hydroxymethyl coumarin]: on KLK5 [1], the IC50 stood at 83 ± 8 nM and the “type of KLK5 inhibition (reversibility)” value is “non reversible inhibitors”.

For the molecule “A1AT: serine proteinase inhibitor alpha-1 anti-trypsin, administered to SPINK7-silenced cells [Compound A1AT]”, the “trypsin-like activity of supernatant of SPINK7 silenced cells” value in experiment [2] is recorded as “inhibited”. For the same molecule, the “barrier function (electrical resistance)” value in experiment [3] is “dose-dependent ability to improve barrier function”. Besides, the “epithelial integrity (inter-cellular spaces)” value in [4] was “decreased inter-cellular spaces”. In the experiment on Filaggrin, the filaggrin expression result is on record as “increased”.

B1: SPINK7: serine proteinase inhibitor kazal-type 7 protein, tested in vitro against KLK5, KLK7, KLK11 and uPA (protein, UniProt P58062 20-85, looked up)
Serine protease inhibitor …: SEAASLSPKKVDCSIYKKYPVVAIPCPITYLPVCGSDYITYGNECHLCTESLKSNGRVQFLHDGSC
Consider B1, for which, in the experiment with KLK5 [5] (in vitro), the “inhibition of KLK5 proteolytic activity” value is listed as “inhibited”. Besides, in the experiment with KLK5 [5] (mean±SD, dose-dependent, read-out: Ki, inhibition of KLK5 proteolytic activity), the Ki worked out at 132 ± 108 nM. For the same molecule, the “inhibition of KLK7” value with KLK7 is reported as “did not inhibit; also recorded: not KLK7”. For the same molecule, in the experiment with KLK11, the “inhibition of KLK11” value is recorded as “did not inhibit”. Moreover, the “inhibition of uPA proteolytic activity” value with uPA is “directly inhibited”.
